tested on: HIF-1α; test: HIF-1α inhibitory activity, hypoxia-response element-luciferase in HRE-A549 cells; format: cell-based; conditions: HIF-1α inhibition, HRE-A549
Experimental: HRE-A549 cells stably transfected with hypoxia-response element-luciferase construct were incubated in Dulbecco's modified Eagle's medium. Following overnight serum deprivation, the cells were treated with or without Deguelin or example compounds. After 1 h incubation, the cells were incubated in hypoxia-chamber for 24 h at 37° C. Luciferase activity was measured by adding luciferase assay reagent (Promega, Madison, Wis.).

SMILES | times lower concentration compared to Comparative Example 1 (Deguelin)
COc1c(C(=O)Cc2ccccc2F)ccc2c1C=CC(C)(C)O2 [Example 67, 2-(2-fluorophenyl)-1-(5-methoxy-2,2-dimethyl-2H-chromen-6-yl)ethanone] | 2

same assay, conditions: HRE-A549 cells, hypoxia-chamber 24 h, luciferase activity

SMILES | IC50
COc1cc2c(cc1OC)[C@@H]1C(=O)c3ccc4c(c3O[C@@H]1CO2)C=CC(C)(C)O4 [Comparative Example 1 (Deguelin), (7aS,13aS)-9,10-Dimethoxy-3,3-dimethyl-13,13a-dihydro-3H-chromeno[3,4-b]pyrano[2,3-h]chromen-7(7aH)-one, reference compound] | 166 nM

same assay, conditions: HRE-A549 cells, hypoxia-chamber 24 h, luciferase activity; read-out: IC50

SMILES | IC50
COc1c(C(=O)Cc2ccc3c(c2)OCCO3)ccc2c1C=CC(C)(C)O2 [Example 58, 2-(2,3-dihydrobenzo[b][1,4]dioxin-6-yl)-1-(5-methoxy-2,2-dimethyl-2H-chromen-6-yl)ethanone] | 1330 nM
COc1c(C(=O)Cc2ccccc2C(F)(F)F)ccc2c1C=CC(C)(C)O2 [Example 69, 1-(5-methoxy-2,2-dimethyl-2H-chromen-6-yl)-2-(2-(trifluoromethyl)phenyl)ethanone] | 2140 nM

Now from value to molecule:

IC50 | SMILES
943 nM | COc1c(C(=O)Cc2ccccc2O)ccc2c1C=CC(C)(C)O2 [Example 84, 2-(2-hydroxyphenyl)-1-(5-methoxy-2,2-dimethyl-2H-chromen-6-yl)ethanone]
1270 nM | COc1c(C(=O)Cc2ccc(Cl)cc2)ccc2c1C=CC(C)(C)O2 [Example 74, 2-(4-chlorophenyl)-1-(5-W methoxy-2,2-dimethyl-2H-chromen-6-yl)ethanone]
334 nM | COc1c(C(=O)Cc2ccccc2Cl)ccc2c1C=CC(C)(C)O2 [Example 64, 2-(2-chlorophenyl)-1-(5-methoxy-2,2-dimethyl-2H-chromen-6-yl)ethanone]
830 nM | COc1cccc(CC(=O)c2ccc3c(c2OC)C=CC(C)(C)O3)c1 [Example 76, 1-(5-methoxy-2,2-dimethyl-2H-chromen-6-yl)-2-(3-methoxyphenyl)ethanone]
604 nM | COc1c(C(=O)Cc2ccc(C(F)(F)F)cc2)ccc2c1C=CC(C)(C)O2 [Example 75, 1-(5-methoxy-2,2-dimethyl-2H-chromen-6-yl)-2-(4-(trifluoromethyl)phenyl)ethanone]
1280 nM | COc1c(C(=O)Cc2ccc(F)c(F)c2)ccc2c1C=CC(C)(C)O2 [Example 56, 2-(3,4-difluorophenyl)-1-(5-methoxy-2,2-dimethyl-2H-chromen-6-yl)ethanone]
78.8 nM | COc1c(C(=O)Cc2ccccc2F)ccc2c1C=CC(C)(C)O2 [Example 67, 2-(2-fluorophenyl)-1-(5-methoxy-2,2-dimethyl-2H-chromen-6-yl)ethanone]
1030 nM | COc1c(C(=O)Cc2ccc(F)cc2)ccc2c1C=CC(C)(C)O2 [Example 73, 2-(4-fluorophenyl)-1-(5-methoxy-2,2-dimethyl-2H-chromen-6-yl)ethanone]
1450 nM | COc1c(C(=O)Cc2cccc(O)c2)ccc2c1C=CC(C)(C)O2 [Example 83, 2-(3-hydroxyphenyl)-1-(5-methoxy-2,2-dimethyl-2H-chromen-6-yl)ethanone]
1240 nM | COc1c(C(=O)Cc2ccc(C#N)cc2)ccc2c1C=CC(C)(C)O2 [Example 72, 4-(2-(5-methoxy-2,2-dimethyl-2H-chromen-6-yl)-2-oxoethyl)benzonitrile]
791 nM | COc1c(C(=O)Cc2ccc(O)cc2)ccc2c1C=CC(C)(C)O2 [Example 85, 2-(4-hydroxyphenyl)-1-(5-methoxy-2,2-dimethyl-2H-chromen-6-yl)ethanone]
883 nM | COc1c(C(=O)Cc2ccccc2)ccc2c1C=CC(C)(C)O2 [Example 59, 1-(5-methoxy-2,2-dimethyl-2H-chromen-6-yl)-2-phenylethanone]
611 nM | COc1c(C(=O)Cc2cccc(Cl)c2)ccc2c1C=CC(C)(C)O2 [Example 68, 2-(3-chlorophenyl)-1-(5-methoxy-2,2-dimethyl-2H-chromen-6-yl)ethanone]
363 nM | COc1c(C(=O)Cc2cccc(F)c2)ccc2c1C=CC(C)(C)O2 [Example 66, 2-(3-fluorophenyl)-1-(5-methoxy-2,2-dimethyl-2H-chromen-6-yl)ethanone]

tested on: H1299 NSCLC (non-small cell lung cancer) cells; test: Cancer cell growth inhibition (MTS); format: cell-based; conditions: Homo sapiens, NCI-H1299, 48 hours, MTS reagent
Experimental: To investigate the inhibitory effect of the compounds of Examples of the present invention on cancer cell growth, the following experiment was performed. Particularly, H1299 NSCLC (non-small cell lung cancer) cells were distributed in a 96-well plate at the density of 5×10^3 cells/well, followed by culture in a 37° C., 5% CO2 incubator for 24 hours. The compound of each example was dissolved in DMSO (10 nM, 100 nM, 1 μM, 10 μM), which was treated to each well. 48 hours later, cell growth was measured by using MTS reagent (3-(4,5-dimethylthiazole-2-yl)-5-(3-carboxymethoxyphenyl)-2-(4-sulfophenyl)-2H-tetrazolium). The experiment was performed in triplicate and the standard error of the analysis result was corrected.

SMILES | IC50
COc1cc2c(cc1OC)[C@H](C(=O)c1ccc3c(c1)C=CC(C)(C)O3)CCO2 (stereo in doubt) [Example 26, (6,7-Dimethoxychroman-4-yl) (2,2-dimethyl-2H-chromen-6-yl)methanone] | 3800 nM
COc1cc2c(cc1OC)-c1c(oc3c4c(ccc3c1=O)OC(C)(C)C=C4)CO2 [Example 5, 9,10-Dimethoxy-3,3-dimethyl-3H-chromeno[3,4-b]pyrano[2,3-h]chromen-7-(13H)-one] | 10100 nM
CCCO[C@@H]1c2ccc3c(c2O[C@@H]2COc4cc(OC)c(OC)cc4[C@H]12)C=CC(C)(C)O3 [Example 10, (7S,7aR,3aS)-9,10-Dimethoxy-3,3-dimethyl-7-propoxy-7,7a,13,13a-tetrahydro-3H-chromeno[3,4-b]pyrano[2,3-h]chromene] | 10500 nM
CCO[C@@H]1c2ccc3c(c2O[C@@H]2COc4cc(OC)c(OC)cc4[C@H]12)C=CC(C)(C)O3 [Example 9, (7S,7aR,3aS)-9,10-Dimethoxy-3,3-dimethyl-7-ethoxy-7,7a,13,13a-tetrahydro-3H-chromeno[3,4-b]pyrano[2,3-h]chromene] | 9800 nM
COc1cc2c(cc1OC)[C@@H]1C(=O)c3ccc(OC)c(CC=C(C)C)c3O[C@@H]1CO2 [Example 21, 2,3,9-Trimethoxy-8-(3-methyl-but-2-enyl)-6a,12a-dihydro-6H-chromeno[3,4-b]chromen-12-one] | 5200 nM
CC1(C)C=Cc2c(ccc3c2O[C@@H]2COc4cc(O)c(O)cc4[C@@H]2C3=O)O1 [Example 4, (7aS,13aS)-13,13a-Dihydro-9,10-dihydroxy-3,3-dimethyl-3H-chromeno[3,4-b]pyrano[2,3-h]chromen-7(7aH)-one] | 970 nM
CO/N=C1\c2ccc3c(c2O[C@@H]2COc4cc(OC)c(OC)cc4[C@H]12)C=CC(C)(C)O3 [Example 17, (7aR,13aS)-9,10-Dimethoxy-3,3-dimethyl-13,13a-dihydro-3H-chromeno[3,4-b]pyrano[2,3-h]chromen-7(7aH)-one O-methyloxime] | 4300 nM
COc1cc2c(cc1OC)[C@@H]1Cc3ccc4c(c3O[C@@H]1CO2)C=CC(C)(C)O4 [Example 7, (7aS,13aS)-9,10-Dimethoxy-3,3-dimethyl-7,7a,13,13a-tetrahydro-3H-chromeno[3,4-b]pyrano[2,3-h]chromene] | 4200 nM
COc1ccc(CC(=O)c2ccc3c(c2)C=CC(C)(C)O3)cc1OC [Example 27, 2-(3,4-Dimethoxyphenyl)-1-(2,2-dimethyl-2H-chromen-6-yl)ethanone] | 1000 nM
COc1ccc(C2(C(=O)c3ccc4c(c3OC)C=CC(C)(C)O4)CC2)cc1OC [Example 32] | 102000 nM
COc1cc2c(cc1OC)[C@@H]1/C(=N/O)c3ccc4c(c3O[C@@H]1CO2)C=CC(C)(C)O4 [Example 16, (7aR,13aS)-9,10-Dimethoxy-3,3-dimethyl-13,13a-dihydro-3H-chromeno[3,4-b]pyrano[2,3-h]chromen-7(7aH)-one oxime] | 300 nM
COc1cc2c(cc1OC)[C@@H]1C(=O)c3ccc4c(c3O[C@@H]1CO2)C=CC(C)(C)O4 [Comparative Example 1 (Deguelin), (7aS,13aS)-9,10-Dimethoxy-3,3-dimethyl-13,13a-dihydro-3H-chromeno[3,4-b]pyrano[2,3-h]chromen-7(7aH)-one, reference compound] | 110 nM
COc1cc2c(cc1OC)[C@@H]1[C@H](OC(C)=O)c3ccc4c(c3O[C@@H]1CO2)C=CC(C)(C)O4 [Example 13, (7S,7aS,13aS)-9,10-Dimethoxy-3,3-dimethyl-7,7a,13,13a-tetrahydro-3H-chromeno[3,4-b]pyrano[2,3,h]chromen-7-yl acetate] | 680 nM

The next lines start with the values.

IC50 | SMILES
3200 nM | COc1ccc(C(C)(C)C(=O)c2ccc3c(c2OC)C=CC(C)(C)O3)cc1OC [Example 30, 2-(3,4-Dimethoxyphenyl)-1-(5-methoxy-2,2-dimethyl-2H-chromen-6-yl)-2-methylpropan-1-one]
490 nM | COc1ccc([C@H](C)C(=O)c2ccc3c(c2OC)C=CC(C)(C)O3)cc1OC [Example 33, (S)-2-(3,4-Dimethoxyphenyl)-1-(5-methoxy-2,2-dimethyl-2H-chromen-6-yl)propan-1-one]
1300 nM | COc1ccc([C@@H](C)C(=O)c2ccc3c(c2OC)C=CC(C)(C)O3)cc1OC [Example 34, (R)-2-(3,4-Dimethoxyphenyl)-1-(5-methoxy-2,2-dimethyl-2H-chromen-6-yl)propan-1-one]
4500 nM | COc1ccc([C@H]2COc3c(ccc4c3C=CC(C)(C)O4)C2=O)cc1OC [Example 25, (3S)-3-(3,4-Dimethoxyphenyl)-8,8-dimethyl-2,3-dihydro-4H,8H-pyrano[2,3-f]chromen-4-one]
730 nM | COc1ccc(C(C)C(=O)c2ccc3c(c2OC)C=CC(C)(C)O3)cc1OC (stereo not drawn) [Example 29, 2-(3,4-Dimethoxyphenyl)-1-(5-methoxy-2,2-dimethyl-2H-chromen-6-yl)propan-1-one]

From patent US9745280B2, “Compound or pharmaceutically acceptable salt thereof, and pharmaceutical composition containing same as active ingredient” (SNU R&DB FOUNDATION, priority 2012, dated 2017)
